Reference: US20250326772A1, “MRGPRX2 ANTAGONISTS, PHARMACEUTICAL COMPOSITION INCLUDING MRGPRX2 ANTAGONIST, AND METHOD OF TREATING MRGPRX2-MEDIATED DISEASE OR DISORDER” (KYORIN PHARMACEUTICAL CO., LTD., priority 2024, published 2025)
pIC50: −log10 of the molar value.

Molecular target: T1, MRGPRX2 (Homo sapiens, UniProt Q96LB1)
T1 sequence (Q96LB1 1-330): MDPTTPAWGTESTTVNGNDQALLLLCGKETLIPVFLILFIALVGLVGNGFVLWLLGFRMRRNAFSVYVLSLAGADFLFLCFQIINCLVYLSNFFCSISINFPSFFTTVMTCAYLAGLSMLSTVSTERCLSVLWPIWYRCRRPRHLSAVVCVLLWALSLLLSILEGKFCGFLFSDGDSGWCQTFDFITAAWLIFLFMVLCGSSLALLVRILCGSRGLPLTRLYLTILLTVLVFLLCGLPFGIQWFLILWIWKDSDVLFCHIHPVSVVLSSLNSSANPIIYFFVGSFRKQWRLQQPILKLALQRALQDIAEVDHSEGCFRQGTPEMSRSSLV
Test: MRGPRX2 reporter cell assay (NFAT-RE luciferase, Substance P stimulation)
Type: cell-based
Conditions: U2OS cells stably transfected with MRGPRX2 and NFAT-RE luciferase reporter, Substance P at EC80
Protocol: MRGPRX2 Reporter Cell Assays U2OS cells (ATCC, Manassas, VA) were stably transfected with MRGPRX2 expression clones (GeneCopoeia, Rockville, MD) and the pGL4.30 [luc2P/NFAT-RE/Hygro] reporter plasmid (Promega, Madison, WI). Clonal cells were maintained in Growth Media (McCoy's 5A, 10% FBS, 495 μg/ml hygromycin, 2 μg/ml puromycin, 100 units/ml penicillin, and 100 ug/ml streptomycin). The day before assay, cells were plated to white 384-well microplates at 3000 (MRGPRX2) cells/well in 10 ul Assay Media (McCoy's 5A, 2% charcoal dextran stripped FBS, 100 units/ml penicillin, and 100 ug/ml streptomycin) (Gibco, Thermo Fisher) and allowed to adhere overnight. The following day, serially diluted compound stocks were added directly to the cells (final DMSO concentration of 0.5%) and pre-incubated for 30 minutes at 37° C., 5% CO2. The final concentration of Substance P (Tocris, Minneapolis, MN, or PEPTIDE INSTITUTE, Osaka, Japan) corresponding to EC80 was added to stimulate the (MRGPRX2) cells. Cells were returned to the incubator for 6 hrs, after which 5 ul of ONE-GLO substrate (Promega) was added. Luminescence was read within 15 minutes (BioTek, Winooski, VT or infinite M1000Pro, Tecan Japan, Kanagawa, Japan). Percent inhibition for each test compound was calculated using the formula: […] where: • A=the luminescence count of the “test compound” well • B=the median luminescence count of the “Vehicle (0.5% DMSO)” wells • C═the median luminescence count of the “Vehicle (0.5% DMSO)+5 uM of substance P” wells The mean percent inhibition of each concentration of “test compound” was used to generate dose-response curves. IC50 values were calculated using a four-parameter logistic fit to the data using GraphPad Prism software. • +++: […]

Row | SMILES | pIC50 (class symbols) | pIC50
1 | COc1ccc(C#N)c(-c2c(-c3c(C)nn4c(C)ccnc34)[nH]c3ncccc23)c1 [EX. 254] | > 8.00 | 
2 | COc1ccc(C#N)c(-c2c(-c3c(C)nn4c3OCC(NC(=O)OC(C)(C)C)C4)[nH]c3ncccc23)c1 (centres unmarked) [EX. 256] | > 8.00 | 
3 | COc1ccc(C#N)c(-c2c(-c3c(C(F)F)nn4c3OCC(NC(=O)OC(C)(C)C)C4)[nH]c3ncccc23)c1 (centres unmarked) [EX. 257] | > 8.00 | 
4 | N#Cc1ccccc1-c1c(-c2n[nH]cc2C(F)(F)F)[nH]c2ncccc12 [EX. 264] | > 8.00 | 
5 | [2H]C([2H])([2H])Oc1ccc(C#N)c(-c2c(-c3c(C)nn4cc(C)cnc34)[nH]c3ncccc23)c1 [EX. 266] | > 8.00 | 
6 | Cn1cc(-c2[nH]c3ncccc3c2-c2ccccc2C#N)c(CF)n1 [EX. 270] | > 8.00 | 
7 | N#Cc1ccccc1-c1c(-c2c(CF)nn3c2OCCC3)[nH]c2ncccc12 [EX. 271] | > 8.00 | 
8 | Cn1cc(-c2c(-c3c(C(F)F)nn4c3OCCC4)[nH]c3ncccc23)c(OC(F)F)n1 [EX. 272] | > 8.00 | 8.54
9 | COc1ccc(C#N)c(-c2c(-c3nn(C)cc3C(F)F)[nH]c3ncccc23)c1 [EX. 281] | > 8.00 | 
10 | Cc1cc(-c2c(-c3cn(C)nc3C(F)F)[nH]c3ncccc23)c(C#N)s1 [EX. 287] | > 8.00 | 
11 | Cn1cc(-c2c(-c3cn(C)nc3C(F)F)[nH]c3ncccc23)c(OC(F)F)n1 [EX. 291] | 7.00 to 8.00 | 
12 | COc1ccc(F)cc1-c1[nH]c2ncccc2c1-c1cn(C)nc1C(F)F [EX. 292] | 6.00 to 7.00 | 
13 | Cc1ccc(F)c(-c2c(-c3cn(C)nc3C(F)(F)F)[nH]c3ncccc23)c1 [EX. 299] | > 8.00 | 
14 | Cn1cc(-c2[nH]c3ncccc3c2-c2cc(F)ccc2C#N)c(C(F)F)n1 [EX. 300] | > 8.00 | 
15 | COc1ccc(F)cc1-c1[nH]c2ncccc2c1C1=CCCCC1 [EX. 301, 3-(cyclohex-1-en-1-yl)-2-(5-fluoro-2-methoxyphenyl)-1H-pyrrolo[2,3-b]pyridine] | 6.00 to 7.00 | 
16 | COc1ccccc1-c1[nH]c2ncccc2c1-c1ccccc1C#N [EX. 307] | > 8.00 | 
17 | COc1ccccc1-c1[nH]c2ncccc2c1-c1cc(C)ccc1F [EX. 314] | > 8.00 | 
18 | COc1ccccc1-c1[nH]c2ncccc2c1-c1cc(C)ccc1C#N [EX. 316] | > 8.00 | 
19 | COc1ccc(F)c(-c2c(-c3cc(F)ccc3OC)[nH]c3ncccc23)c1 [EX. 323] | > 8.00 | 
20 | COc1ccc(F)cc1-c1[nH]c2ncccc2c1-c1cc(C)ccc1C#N [EX. 326] | > 8.00 | 
21 | Cc1ccc(F)c(-c2c(-c3cc(F)ccc3O)[nH]c3ncccc23)c1 [EX. 344] | > 8.00 | 
22 | COc1ccc(F)c(-c2c(-c3cc(F)ccc3OC)[nH]c3ncccc23)c1 [EX. 345] | > 8.00 | 
23 | [2H]C([2H])([2H])Oc1ccc(F)cc1-c1[nH]c2ncccc2c1-c1ccccc1C#N [EX. 346] | > 8.00 | 
24 | COc1ccc(F)cc1-c1[nH]c2ncccc2c1C1=CC(C)(C)CCC1OC (centres unmarked) [EX. 351, 2-(5-fluoro-2-methoxyphenyl)-3-(6-methoxy-3,3-dimethylcyclohex-1-en-1-yl)-1H-pyrrolo[2,3-b]pyridine] | 6.00 to 7.00 | 
25 | COc1ccc(C#N)c(-c2c(-c3c(C)nn4c3OCC(NC(C)=O)C4)[nH]c3ncccc23)c1 (centres unmarked) [EX. 354, N-[3-[3-(2-cyano-5-methoxy-phenyl)-1H-pyrrolo[2,3-b]pyridin-2-yl]-2-methyl-6,7-dihydro-5H-pyrazolo[5,1-b] [1,3]oxazin-6-yl]acetamide] | > 8.00 | 
26 | COc1ccc(C#N)c(-c2c(-c3c(C)nn4c3OCC(N)C4)[nH]c3ncccc23)c1 (centres unmarked) [EX. 355] | > 8.00 | 
27 | COc1ccc(C#N)c(-c2c(-c3c(C)nn4c3OCC(NC(C)=O)C4)[nH]c3ncccc23)c1 (centres unmarked) [EX. 356] | > 8.00 | 
28 | COc1ccc(C#N)c(-c2c(-c3c(C(F)F)nn4c3OCC(N)C4)[nH]c3ncccc23)c1 (centres unmarked) [EX. 357] | > 8.00 | 

Row | SMILES | pIC50 (class symbols) | pIC50
29 | COc1ccc(C#N)c(-c2c(-c3c(C(F)F)nn4c3OCC(NC(C)=O)C4)[nH]c3ncccc23)c1 (centres unmarked) [EX. 358] | > 8.00 | 
30 | COc1ccc(C#N)c(-c2c(-c3c(C)nn4c3OCC(N)C4)[nH]c3ncccc23)c1 (centres unmarked) [EX. 359] | > 8.00 | 
31 | COc1ccc(C#N)c(-c2c(-c3c(C(F)F)nn4c3OC[C@H](N)C4)[nH]c3ncccc23)c1 [EX. 361] | > 8.00 | 
32 | COc1ccc(C#N)c(-c2c(-c3c(C(F)F)nn4c3OC[C@H](NC(C)=O)C4)[nH]c3ncccc23)c1 [EX. 362] | > 8.00 | 
33 | COc1ccc(C#N)c(-c2c(-c3c(C(F)F)nn4c3OC[C@@H](N)C4)[nH]c3ncccc23)c1 [EX. 363] | > 8.00 | 
34 | COc1ccc(C#N)c(-c2c(-c3c(C(F)F)nn4c3OC[C@@H](NC(C)=O)C4)[nH]c3ncccc23)c1 [EX. 364] | > 8.00 | 
35 | [2H]C([2H])([2H])Oc1ccc(C#N)c(-c2c(-c3c(C)nn4c3OC[C@@H](O)C4)[nH]c3ncccc23)c1 [EX. 366, 2-[2-[(6S)-6-hydroxy-2-methyl-6,7-dihydro-5H-pyrazolo[5,1-b] [1,3]oxazin-3-yl]-1H-pyrrolo[2,3-b]pyridin-3-yl]-4-(trideuteriomethoxy)benzonitrile] | > 8.00 | 
36 | [2H]C([2H])([2H])Oc1ccc(C#N)c(-c2c(-c3c(C)nn4c3OCC(O)C4)[nH]c3ncccc23)c1 (centres unmarked) [EX. 367] | > 8.00 | 
37 | COc1ccc(C#N)c(-c2c(-c3c(C(F)F)nn4c3OC[C@H](O)C4)[nH]c3ncccc23)c1 [EX. 368] | > 8.00 | 
38 | COc1ccc(C#N)c(-c2c(-c3c(C(F)F)nn4c3OC[C@@H](O)C4)[nH]c3ncccc23)c1 [EX. 369] | > 8.00 | 
39 | [2H]C([2H])([2H])Oc1ccc(C#N)c(-c2c(-c3c(C(F)F)nn4c3OC[C@H](O)C4)[nH]c3ncccc23)c1 [EX. 370] | > 8.00 | 
40 | N#Cc1ccccc1-c1c(-c2c(C(F)F)nn3c2OC[C@H](O)C3)[nH]c2ncccc12 [EX. 371] | > 8.00 | 
41 | Cn1cc(-c2[nH]c3ncccc3c2-c2cc(Cl)ccc2C#N)c(C(F)F)n1 [EX. 375, 4-chloro-2-[2-[3-(difluoromethyl)-1-methyl-pyrazol-4-yl]-1 H-pyrrolo[2,3-b]pyridin-3-yl]benzonitrile] | > 8.00 | 
42 | [2H]C([2H])([2H])n1cc(-c2[nH]c3ncccc3c2-c2cc(OC)ccc2C#N)c(C(F)F)n1 [EX. 377] | > 8.00 | 
43 | Cc1cc(-c2c(-c3cnn4c3OCCC4)[nH]c3ncccc23)c(C#N)s1 [EX. 380] | 7.00 to 8.00 | 
44 | FC(F)Oc1nnccc1-c1c(-c2c(C(F)F)nn3c2OCCC3)[nH]c2ncccc12 [EX. 388, 3-(3-(3-(difluoromethoxy)pyridazin-4-yl)-1H-pyrrolo[2,3-b]pyridin-2-yl)-2-(difluoromethyl)-6,7-dihydro-5H-pyrazolo[5,1-b] [1,3]oxazine] | 7.00 to 8.00 | 
45 | FC(F)Oc1nnc(Cl)cc1-c1c(-c2c(C(F)F)nn3c2OCCC3)[nH]c2ncccc12 [EX. 389, 3-(3-(6-chloro-3-(difluoromethoxy)pyridazin-4-yl)-1H-pyrrolo[2,3-b]pyridin-2-yl)-2-(difluoromethyl)-6,7-dihydro-5H-pyrazolo[5,1-b] [1,3]oxazine] | 7.00 to 8.00 | 
46 | CCn1cc(-c2c(-c3c(C(F)F)nn4c3OCCC4)[nH]c3ncccc23)c(OC(F)F)n1 [EX. 400, 3-[3-[3-(difluoromethoxy)-1-ethyl-pyrazol-4-yl]-1H-pyrrolo[2,3-b]pyridin-2-yl]-2-(difluoromethyl)-6,7-dihydro-5H-pyrazolo[5,1-b] [1,3]oxazine] | 7.00 to 8.00 | 
47 | Cn1cc(-c2c(-c3c(C(F)F)nn4c3OCCC4)[nH]c3ncccc23)c(C#N)n1 [EX. 401] | > 8.00 | 
48 | FC(F)Oc1nscc1-c1c(-c2c(C(F)F)nn3c2OCCC3)[nH]c2ncccc12 [EX. 402] | > 8.00 | 
49 | N#Cc1nscc1-c1c(-c2c(C(F)F)nn3c2OCCC3)[nH]c2ncccc12 [EX. 403] | > 8.00 | 
50 | COc1nscc1-c1c(-c2c(C(F)F)nn3c2OCCC3)[nH]c2ncccc12 [EX. 404] | 7.00 to 8.00 | 
51 | FC(F)Oc1n[nH]cc1-c1c(-c2c(C(F)F)nn3c2OCCC3)[nH]c2ncccc12 [EX. 406] | 6.00 to 7.00 | 
52 | FC(F)Oc1nocc1-c1c(-c2c(C(F)F)nn3c2OCCC3)[nH]c2ncccc12 [EX. 407] | 7.00 to 8.00 | 
53 | N#Cc1cnccc1-c1c(-c2c(C(F)F)nn3c2OCCC3)[nH]c2ncccc12 [EX. 408] | > 8.00 | 
54 | N#Cc1nccnc1-c1c(-c2c(C(F)F)nn3c2OCCC3)[nH]c2ncccc12 [EX. 409] | 6.00 to 7.00 | 
55 | FC(F)Oc1ncccc1-c1c(-c2c(C(F)F)nn3c2OCCC3)[nH]c2ncccc12 [EX. 410] | > 8.00 | 
